From publication PMC4658560, “Assessment of pharmacokinetic compatibility of short acting CDRI candidate trioxane derivative, 99–411, with long acting prescription antimalarials, lumefantrine and piperaquine” (Scientific Reports, 2015)
Read-outs that look alike come from different tables or passages of the source. Values belong to the molecule of their own block, whether it stands above or below them.

How the values were obtained:
[1] = Pharmacokinetic interaction study, oral administration alone or in combination in rats; type: in vivo, rat; conditions: for AUC(0-inf) / CL/F / Cmax / Tmax / Vd/F / half-life / AUC(0-t): rat, plasma, po
Method: Rats were divided into five groups (n = 5, each); three control groups (LUME 10 mg/kg, oral, suspension in 0.25% Sodium CMC; PPQ 50 mg/kg, oral, solution in triple distilled water; and 99–411 70 mg/kg, oral, suspension in 0.25% Sodium CMC) and two co-administration group (70 mg/kg of oral 99–411 & 10 mg/kg of oral LUME; and 70 mg/kg of oral 99–411 & 50 mg/kg of oral PPQ). The rats were fasted overnight (14–16 h) prior to the experiment but given free access to water. Blood samples were collected from the retro-orbital plexus into heparinized microfuge tubes at 0.25, 0.50, 1, 3, 6, 9, 11, 13, 15, 24, 48, 72 and 120 h post-dosing and plasma was harvested by centrifuging the blood at 15000 × g for 10 min and stored frozen at –70 ± 10 °C until bioanalysis. Plasma data were subjected to non-compartmental pharmacokinetics analysis using WinNonlin (version 5.1, Pharsight Corporation, Mountain View, USA). The pharmacokinetic parameters were compared using student’s t test. […] The relative bioavailability (RB%) was calculated according to equation 1 as follows: […]

[2] = In situ single-pass intestinal perfusion permeability study; type: in vivo; conditions: male, SD, rat, other: single-pass perfusion through the jejunal lumen, rat jejunum, read-out: effective permeability
Method: Single-pass intestinal perfusion studies in rats (n = 5 per group) were performed using established methods adapted from the literature. Briefly, male SD rats were fasted overnight for 12 to 16 h with free access to water and anaesthetized using an intra-peritoneal injection of urethane (1 g/kg) and placed on a heated pad to keep normal body temperature. Upon verification of the loss of pain reflex, a midline longitudinal abdominal incision was made, and the lumen of the jejunum (10 cm) was catherised and flushed with 10 ml of saline pre-warmed to 37 °C. The solution of analytes (10 μM) was prepared in perfusion buffer and passed at a flow rate of 0.2 mL/min through the lumen. After allowing 30 min to reach steady-state outlet concentrations, outlet perfusate samples were collected every 15 min for 120 min perfusion period. Phenol red was used as a marker of osmosis/zero permeability. At the end, the length of segment was measured without stretching and finally the animal was euthanized. Samples were analysed by LC-MS/MS after diluting 20 times with mobile phase.

[3] = Stability in rat plasma (autosampler, bench top, freeze/thaw, long-term freezer); type: in vitro ADME
Method: Validation was carried out as per US FDA bioanalytical method validation guidelines. The extraction recovery of analytes, through protein precipitation extraction procedure, was determined by comparing the peak areas of extracted plasma (pre-spiked) standard QC samples (n = 6) to those of the post-spiked standards at equivalent concentrations (QC low, QC medium and QC high concentrations for the analytes and 50 ng/mL for IS). Specificity and selectivity was studied by using independent plasma samples from six different rats to investigate the potential interferences at the LC peak region for analyte and IS, using the proposed extraction procedure and chromatographic–MS conditions. Matrix effect was determined by comparing the responses of the post-extracted plasma standard QC samples (n = 6) with the response of analytes from neat standard samples, for all analytes at LLOQ[22]. Calibration curve was constructed using […] calibration standards of LUME and 99–411 and of PPQ and 99–411 (3.9, 7.8, 15.6, 31.25, 62.5, 125, 250 and 500 ng/mL) by spiking 90 μL of pooled drug free rat plasma with the appropriate working standard solution of the analytes (10 μL). The intra-day assay precision and accuracy were estimated by analyzing six replicates at four the QC levels, i.e., 3.9/7.8, 10, 100 and 400 ng/mL,for both the combinations. The inter-assay precision was determined by analyzing the four levels QC samples on three different runs. The criteria for acceptability of the data included accuracy within ± 15% deviation from the nominal values and a precision of within ± 15% relative standard deviation (R.S.D.), except for LLOQ, where it should not exceed ± 20% of accuracy as well as precision. All stability studies were conducted at two concentration levels, i.e. […] The dilution integrity experiment was performed to validate the dilution test to be carried out on higher analyte concentrations (above the upper limit of quantification), which may be encountered during real subject samples analysis. Dilution integrity experiments were carried out by 20 times dilution of plasma samples containing 8000 ng/mL of LUME and 99–411 and PPQ and 99–411 with blank plasma to obtain samples containing 400 ng/mL of the respective combinations.

CYP3A4 = system: CYP3A4; parameters: method as in PMID 21503937, PMID 10727880, PMID 11463111; conditions: cited from earlier work
P-gp = conditions: cited from earlier work
human P-gp = target: T1, human P-gp (Homo sapiens, UniProt P08183); test: Human P-gp ATPase assay (vanadate-sensitive ATPase activity); type: biochemical; conditions: concentration not given
T1 construct: purchased BD Gentest (Woburn, MA)

[4] = 10 mg/kg, LUME 10 mg/kg oral alone (control), rats
[5] = 10 mg/kg, LUME 10 mg/kg oral co-administered with 99–411 70 mg/kg, rats
[6] = 50 mg/kg, PPQ 50 mg/kg oral alone (control), rats
[7] = PPQ 50 mg/kg oral co-administered with 99–411 70 mg/kg, rats

T1 sequence (P08183 whole entry): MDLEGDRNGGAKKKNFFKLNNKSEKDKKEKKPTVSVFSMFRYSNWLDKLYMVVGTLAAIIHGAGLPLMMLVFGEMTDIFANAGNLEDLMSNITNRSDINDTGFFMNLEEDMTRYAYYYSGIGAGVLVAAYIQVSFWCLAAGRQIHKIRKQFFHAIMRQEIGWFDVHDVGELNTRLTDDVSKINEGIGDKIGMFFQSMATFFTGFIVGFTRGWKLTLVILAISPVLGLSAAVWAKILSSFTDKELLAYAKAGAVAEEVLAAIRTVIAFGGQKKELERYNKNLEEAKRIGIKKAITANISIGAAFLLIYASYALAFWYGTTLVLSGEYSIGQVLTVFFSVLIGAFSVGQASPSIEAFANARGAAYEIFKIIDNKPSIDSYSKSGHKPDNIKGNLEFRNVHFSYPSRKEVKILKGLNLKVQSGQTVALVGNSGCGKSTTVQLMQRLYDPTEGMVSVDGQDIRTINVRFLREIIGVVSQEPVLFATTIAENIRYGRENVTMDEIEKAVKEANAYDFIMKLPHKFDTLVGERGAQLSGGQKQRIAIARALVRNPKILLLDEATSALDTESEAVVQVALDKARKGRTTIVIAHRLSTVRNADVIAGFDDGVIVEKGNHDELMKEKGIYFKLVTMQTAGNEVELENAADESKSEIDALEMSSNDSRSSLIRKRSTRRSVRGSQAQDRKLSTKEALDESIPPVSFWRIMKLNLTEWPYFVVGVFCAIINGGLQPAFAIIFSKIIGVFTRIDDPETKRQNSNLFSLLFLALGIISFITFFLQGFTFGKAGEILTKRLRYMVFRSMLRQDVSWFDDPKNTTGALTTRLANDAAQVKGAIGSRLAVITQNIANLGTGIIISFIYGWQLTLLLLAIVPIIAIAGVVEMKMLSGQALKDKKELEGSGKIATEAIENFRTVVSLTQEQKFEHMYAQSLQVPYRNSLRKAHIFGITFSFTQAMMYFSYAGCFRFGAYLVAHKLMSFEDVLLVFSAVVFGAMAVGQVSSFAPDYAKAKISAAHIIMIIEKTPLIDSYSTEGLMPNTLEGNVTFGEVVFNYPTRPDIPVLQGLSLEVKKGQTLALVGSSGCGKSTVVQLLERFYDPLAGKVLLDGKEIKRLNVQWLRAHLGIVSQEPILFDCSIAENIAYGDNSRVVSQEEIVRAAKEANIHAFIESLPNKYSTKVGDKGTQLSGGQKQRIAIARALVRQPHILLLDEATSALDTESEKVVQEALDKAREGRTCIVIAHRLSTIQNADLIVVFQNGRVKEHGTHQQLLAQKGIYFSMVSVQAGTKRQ

SMILES: CCCCN(CCCC)CC(O)c1cc(Cl)cc2c1-c1ccc(Cl)cc1/C2=C/c1ccc(Cl)cc1 (centres unmarked) [LUME, lumefantrine]
AUC(0-inf) [1, 4]: 17400 ± 3290 ng·h/mL | CL/F [1, 4]: 9.83 mL/min/kg | Cmax [1, 4]: 1810 ± 750 ng/mL | Tmax [1, 4]: 3.75 ± 1.5 h | Vd/F [1, 4]: 39.4 ± 6.26 L/kg | half-life [1, 4]: 46.9 ± 6.52 h | AUC(0-t) ([1]; 10 mg/kg, LUME 10 mg/kg oral alone (control), rats n=5, mean ± SD): 16500 ± 2960 ng·h/mL | AUC(0-inf) [1, 5]: 16500 ± 3510 ng·h/mL | AUC(0-t) [1, 5]: 15400 ± 3580 ng·h/mL | CL/F [1, 5]: 10.5 mL/min/kg | Cmax [1, 5]: 1740 ± 670 ng/mL | Tmax [1, 5]: 3.6 ± 1.34 h | Vd/F [1, 5]: 46.4 ± 16.4 L/kg | half-life [1, 5]: 50.8 ± 10.2 h | Papp at 120 min, 10 μM ([2]; lumefantrine co-perfused with 99–411, 10 μM): 46.8 ± 13.7 ×10⁻⁶ cm/s | Papp at 120 min, 10 μM ([2]; lumefantrine control, 10 μM): 40.3 ± 4.9 ×10⁻⁶ cm/s | Accuracy (%) in stability test ([3]; LUME/99-411 method, 10 ng/mL, 6 h (BT, bench top, room temperature)): 91.73% | Accuracy (%) in stability test ([3]; LUME/99-411 method, 10 ng/mL, 24 h (AS, autosampler)): 98.45% | Accuracy (%) in stability test ([3]; LUME/99-411 method, 10 ng/mL, 15 day at -70 °C): 97.80% | Accuracy (%) in stability test ([3]; LUME/99-411 method, 10 ng/mL, FT-3 (three freeze/thaw cycles)): 91.33% | Accuracy (%) in stability test ([3]; LUME/99-411 method, 400 ng/mL, 6 h (BT, bench top, room temperature)): 95.94% | Accuracy (%) in stability test ([3]; LUME/99-411 method, 400 ng/mL, 24 h (AS, autosampler)): 100.13% | Accuracy (%) in stability test ([3]; LUME/99-411 method, 400 ng/mL, 15 day at -70 °C): 101.30% | Accuracy (%) in stability test ([3]; LUME/99-411 method, 400 ng/mL, FT-3 (three freeze/thaw cycles)): 100.96% | CYP3A4 substrate status (CYP3A4): CYP3A4 substrates | P-gp substrate status (P-gp): P-gp substrate

increase of Vd/F of PPQ with 99–411 co-administration ([1]; oral, rats): 194.49% | increase of clearance (Cl/F) of PPQ with 99–411 co-administration ([1]; oral, rats): 41.94% | decrease of AUC0-∞ of PPQ in presence of 99–411 ([1]; oral, rats, vs PPQ alone, p = 0.0018): 61.39% | decrease of Cmax of PPQ in presence of 99–411 ([1]; oral, rats, vs PPQ alone, p = 0.0154): 61.67% | AUC(0-inf) [1, 6]: 31500 ± 2680 ng·h/mL | CL/F [1, 6]: 26.7 mL/min/kg | Cmax [1, 6]: 890 ± 230 ng/mL | Tmax [1, 6]: 6.6 ± 1.34 h | Vd/F [1, 6]: 49 ± 8.38 L/kg | half-life [1, 6]: 21.4 ± 4.39 h | AUC(0-t) ([1]; 50 mg/kg, PPQ 50 mg/kg oral alone (control), rats n=5, mean ± SD): 28100 ± 2790 ng·h/mL | AUC(0-inf) [1, 7]: 19400 ± 5290 ng·h/mL | AUC(0-t) [1, 7]: 17000 ± 5030 ng·h/mL | CL/F [1, 7]: 45.5 mL/min/kg | Cmax [1, 7]: 540 ± 110 ng/mL | Tmax [1, 7]: 6 h | Vd/F [1, 7]: 166 ± 71.7 L/kg | half-life [1, 7]: 41.7 ± 11.8 h | Accuracy (%) in stability test ([3]; PPQ/99-411 method, 10 ng/mL, 6 h (BT, bench top, room temperature)): 99.31% | Accuracy (%) in stability test ([3]; PPQ/99-411 method, 10 ng/mL, 24 h (AS, autosampler)): 105.78% | Accuracy (%) in stability test ([3]; PPQ/99-411 method, 10 ng/mL, 15 days at -70 °C): 106.75% | Accuracy (%) in stability test ([3]; PPQ/99-411 method, 10 ng/mL, FT-3 (three freeze/thaw cycles)): 99.51% | Accuracy (%) in stability test ([3]; PPQ/99-411 method, 400 ng/mL, 6 h (BT, bench top, room temperature)): 102.13% | Accuracy (%) in stability test ([3]; PPQ/99-411 method, 400 ng/mL, 24 h (AS, autosampler)): 102.48% | Accuracy (%) in stability test ([3]; PPQ/99-411 method, 400 ng/mL, 15 days at -70 °C): 103.59% | Accuracy (%) in stability test ([3]; PPQ/99-411 method, 400 ng/mL, FT-3 (three freeze/thaw cycles)): 100.98%
SMILES: Clc1ccc2c(N3CCN(CCCN4CCN(c5ccnc6cc(Cl)ccc56)CC4)CC3)ccnc2c1 [PPQ, piperaquine]

basal ATPase activity in the presence of the negative control (human P-gp): 0.96
SMILES: CC(C)NCC(O)COc1cccc2ccccc12 (centres unmarked) [propranolol]
